# Laboratory results published in paper PMC3425833, “Synthesis, Urease Inhibition, Antioxidant, Antibacterial, and Molecular Docking Studies of 1,3,4-Oxadiazole Derivatives” (ISRN Pharmacology, 2012).
# “Also recorded” adds a separate entry of the source. Like-named read-outs stand apart in the source and are kept apart here.
# How the values were obtained:
# [1] = DPPH radical scavenging (antioxidant) assay; conditions: for IC50: DPPH 300 μM, half an hour at 37°C; for DPPH radical scavenging activity compared to standard propyl gallate: in words
# Procedure: The free radical scavenging capacity of the compounds was measured by 1,1-diphenyl-2-picrylhydrazyl. Test compounds were allowed to react with stable free radical, 1,1-diphenyl-2-picrylhydrazyl radical (DPPH) for half an hour at 37°C. The concentration of DPPH was kept as 300 μM. The test samples were dissolved in DMSO while the DPPH solution was prepared in ethanol. After incubation, decrease in absorption was measured at 515 nm using microplate reader. Percent radical scavenging activity of samples was determined in comparison with a DMSO treated as control. Propyl gallate and 3-tert-Butyl-4-hydroxyanisole were used as standards.
# [2] = tested on: Shigella flexneri; assay: Antibacterial activity, serial tube dilution MIC; format: cell-based; conditions: for MIC: Shigella flexneri, read-out: MIC S. flexneri; for Antibacterial activity against S. flexneri compared to standard ciprofloxacin: in words
# Procedure: (§1) The antibacterial activity data is represented in Table 2. […] Ciprofloxacin was used as standard drug. The compounds were found active against bacterial strains (2 Gram positive bacteria, namely, Staphylococcus aureus, Bacillus subtilis, and 2 Gram negative bacteria namely Escherichia coli, Shigella flexneri) in variable concentration. The antibacterial activities of 1,3,4-oxadiazole derivatives were evaluated in vitro by serial tube dilution method. The compounds and standard drug ciprofloxacin were dissolved in N,N-dimethylformamide (DMF) to give a concentration of 5 μg/mL (stock solution). Necessary apparatus and test tubes set of capacity 5 mL was washed cleaned and completely dried. For the bacterial culture double strength nutrient broth was used. The culture media was made by dissolving 15 g of nutrient broth in 1 L of distilled water. Approximately, 1 mL of culture media was prepared and transferred to each test tube by micropipette and capped with non-adsorbent cotton plugs. The test tubes containing 1 mL culture media was sterilized in an autoclave at 121°C for 20 min at 15 psi pressure. Sub-culturing of bacteria was done by transferring a loopful of particular bacterial strain from standard bacterial agar to 10 mL sterilized nutrient broth aseptically in a laminar air flow cabinet. It was then incubated for a period of 24 h at 37°C in a B. O. D. incubator. Bacterial strain suspension was prepared, after 24 h incubation, by aseptically inoculating 0.2 mL of revived bacterial colony into 100 mL of 0.9% m/v saline. A series of 5 assay tubes for a single derivative against each bacterial strain was employed. A stock solution of each test derivative at concentration 5 μg/mL (containing 1 mL nutrient broth) was serially diluted to achieve concentrations of 2.5, 1.25, 0.625, 0.313, and 0.156 μg/mL. Then, 0.1 mL of normal saline suspension of revived bacteria was added to each test tube. The inoculated tubes were incubated at 37°C for 24 h. The MIC (minimum inhibitory concentration) values were determined by subsequently checking for the absence of visual turbidity.
# [3] = tested on: Staphylococcus aureus; assay: Antibacterial activity, serial tube dilution MIC; format: cell-based; conditions: for MIC: Staphylococcus aureus, read-out: MIC S. aureus; for Antibacterial activity against S. aureus compared to standard ciprofloxacin: in words
# Procedure: as §1
# [4] = tested on: Escherichia coli; assay: Antibacterial activity, serial tube dilution MIC; format: cell-based; conditions: for MIC: Escherichia coli, 24 h, read-out: MIC E. coli; for Antibacterial activity against E. coli compared to standard ciprofloxacin: in words
# Procedure: as §1
# [5] = tested on: Bacillus subtilis; assay: Antibacterial activity, serial tube dilution MIC; format: cell-based; conditions: for MIC: Bacillus subtilis, read-out: MIC B. subtilus
# Procedure: as §1
# [6] = target: Jack bean urease (Canavalia ensiformis, UniProt P07374); assay: biochemical; format: biochemical; conditions: for Urease inhibitory activity in words: qualitative statement
# Chain of Jack bean urease (P07374 whole entry, looked up): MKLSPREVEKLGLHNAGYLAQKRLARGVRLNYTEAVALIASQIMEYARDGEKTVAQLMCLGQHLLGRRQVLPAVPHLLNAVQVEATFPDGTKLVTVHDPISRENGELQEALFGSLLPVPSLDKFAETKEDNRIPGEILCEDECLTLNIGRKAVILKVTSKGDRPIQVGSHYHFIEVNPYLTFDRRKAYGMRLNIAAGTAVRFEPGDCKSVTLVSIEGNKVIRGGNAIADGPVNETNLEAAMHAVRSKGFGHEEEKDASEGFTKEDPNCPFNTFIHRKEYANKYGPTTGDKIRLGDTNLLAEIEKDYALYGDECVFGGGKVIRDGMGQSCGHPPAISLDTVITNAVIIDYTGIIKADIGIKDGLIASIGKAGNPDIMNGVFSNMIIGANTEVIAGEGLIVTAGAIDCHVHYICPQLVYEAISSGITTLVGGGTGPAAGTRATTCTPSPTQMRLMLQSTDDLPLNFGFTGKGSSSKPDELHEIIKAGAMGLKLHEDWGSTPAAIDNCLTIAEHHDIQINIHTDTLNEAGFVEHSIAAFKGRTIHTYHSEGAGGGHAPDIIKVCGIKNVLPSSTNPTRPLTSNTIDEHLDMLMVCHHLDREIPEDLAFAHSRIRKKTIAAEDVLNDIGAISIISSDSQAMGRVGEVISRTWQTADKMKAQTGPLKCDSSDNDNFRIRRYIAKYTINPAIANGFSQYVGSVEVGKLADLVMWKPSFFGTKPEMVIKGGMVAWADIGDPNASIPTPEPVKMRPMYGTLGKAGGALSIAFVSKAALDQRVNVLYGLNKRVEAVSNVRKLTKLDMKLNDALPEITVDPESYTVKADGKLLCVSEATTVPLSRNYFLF
# [7] = average of three readings, 24 h at 37°C
SMILES,IC50 [1] [µM],MIC ([2]; 24 h) [mg/L],"MIC [3, 7] [mg/L]","MIC [4, 7] [mg/L]","MIC [5, 7] [mg/L]","MIC [2, 7] [mg/L]",Antibacterial activity against S. flexneri compared to standard ciprofloxacin [2],MIC [4] [mg/L],Antibacterial activity against B. subtilus relative to ciprofloxacin [5] [fold],IC50 [6] [µM],Antibacterial activity against S. aureus compared to standard ciprofloxacin [3],MIC ([5]; 24 h) [mg/L],Urease inhibitory activity in words [6],DPPH radical scavenging activity compared to standard propyl gallate [1],Antibacterial activity against E. coli compared to standard ciprofloxacin [4],MIC ([3]; 24 h) [mg/L],Urease inhibitory activity relative to the standard (thiourea) ([6]; more active than the standard) [fold],inhibition at 100 µM ([6]; read-out: % inhibition of Jack bean urease) [%],"IC50 ([6]; triplicate, thiourea standard, read-out: IC50 ± SEM, inhibitory activity against Jack bean urease) [µM]"
"COc1ccc(O)c(C(C)(C)C)c1 [3-tert-Butyl-4-hydroxyanisole, reference compound]",28.2 ± 1.1,–,–,–,–,–,–,–,–,–,–,–,–,–,–,–,–,–,–
"O=C(O)c1cn(C2CC2)c2cc(N3CCNCC3)c(F)cc2c1=O [Ciprofloxacin, reference compound]",–,0.31,0.156,0.156,0.625,–,–,–,–,–,–,–,–,–,–,–,–,–,–
"COc1ccc(-c2n[nH]c(=S)o2)c(OC)c1OC [Compound 4a, 5-(2,3,4-Trimethoxyphenyl)-1,3,4-oxadiazole-2(3H)-thione]",123 ± 5.1,–,1.25,–,0.156,0.313,equipotent activity,0.313,4,5.79 ± 0.3,–,–,–,–,–,–,–,–,–
"S=c1[nH]nc(-c2cc3ccccc3[nH]2)o1 [Compound 4b, 5-(1H-Indol-2-yl)-1,3,4-oxadiazole-2(3H)-thione]",107 ± 3.4,–,0.156,0.625,–,0.313,equipotent activity,–,–,21.3 ± 0.7,equipotent activity,0.313,nearly same activity,–,–,–,–,–,–
"S=c1[nH]nc(Cc2ccc(Br)cc2)o1 [Compound 4c, 5-(4-Bromobenzyl)-1,3,4-oxadiazole-2(3H)-thione]",38 ± 4.1,–,0.625,2.5,–,0.156,two-fold activities,–,4,11.8 ± 0.4,–,0.156,–,more effective,considerably less active,–,–,–,–
"S=c1[nH]nc(Cc2ccc(Cl)c(Cl)c2)o1 [Compound 4e, 5-(3,4-Dichlorobenzyl)-1,3,4-oxadiazole-2(3H)-thione]",59 ± 6.3,–,–,0.156,0.625,0.313,equipotent activity,–,–,11.3 ± 0.6,–,–,–,–,equipotent,0.313,–,–,–
"Fc1ccccc1Cc1n[nH]c(=S)o1 [Compound 4f, 5-(2-Fluorobenzyl)-1,3,4-oxadiazole-2(3H)-thione]",46.6 ± 4.6,–,0.156,0.313,0.156,1.25,–,–,4,3.27 ± 0.3,equipotent activity,–,–,–,–,–,–,–,–
"COc1ccc(CCc2n[nH]c(=S)o2)cc1 [Compound 4g, 5-(4-Methoxyphenethyl)-1,3,4-oxadiazole-2(3H)-thione]",50.8 ± 2.1,–,2.5,0.156,0.625,0.313,equipotent activity,–,–,5.61 ± 0.3,–,–,–,–,equipotent,–,–,–,–
"S=c1[nH]nc(Cc2ccc(Cl)cc2Cl)o1 [Compound 4h, 5-(2,4-Dichlorobenzyl)-1,3,4-oxadiazole-2(3H)-thione]",57.8 ± 1.8,–,0.625,1.25,–,0.156,two-fold activities,–,4,42.4 ± 1.2,–,0.156,weak inhibitory activities,–,considerably less active,–,–,–,–
"COc1ccccc1CCc1n[nH]c(=S)o1 [Compound 4i, 5-(2-Methoxyphenethyl)-1,3,4-oxadiazole-2(3H)-thione]",40.2 ± 3.3,–,–,0.156,0.625,0.313,equipotent activity,–,–,6.22 ± 0.4,–,–,–,Equipotent,equipotent,0.313,–,–,–
"S=c1[nH]nc(Cc2ccc(Cl)cc2)o1 [Compound 4j, 5-(4-Chlorobenzyl)-1,3,4-oxadiazole-2(3H)-thione]",51.6 ± 2.1,–,0.313,0.313,1.25,0.156,two-fold activities,–,–,1.15 ± 0.2,–,–,–,–,–,–,20,–,–
"S=c1[nH]nc(Cc2ccccc2Cl)o1 [Compound 4k, 5-(2-Chlorobenzyl)-1,3,4-oxadiazole-2(3H)-thione]",34.4 ± 3.2,–,–,–,0.313,0.156,two-fold activities,0.156,–,12.9 ± 0.6,equipotent activity,–,–,more effective,equipotent,0.156,–,–,–
"COc1ccc(Cc2n[nH]c(=S)o2)cc1 [Compound 4l, 5-(4-Methoxybenzyl)-1,3,4-oxadiazole-2(3H)-thione]",88.2 ± 4.1,–,0.625,0.313,2.5,0.156,two-fold activities,–,–,5.83 ± 0.08,–,–,–,–,–,–,–,–,–
"COc1ccccc1Cc1n[nH]c(=S)o1 [Compound 4m, 5-(2-Methoxybenzyl)-1,3,4-oxadiazole-2(3H)-thione]",42.7 ± 3.7,–,1.25,0.625,0.156,0.313,equipotent activity,–,4,5.6 ± 0.6,–,–,–,–,–,–,–,–,–
"COc1cccc(Cc2n[nH]c(=S)o2)c1 [Compound 4n, 5-(3-Methoxybenzyl)-1,3,4-oxadiazole-2(3H)-thione]",60.3 ± 4.3,–,–,0.625,–,0.156,two-fold activities,–,4,12.2 ± 0.05,equipotent activity,0.156,–,–,–,0.156,–,–,–
"COc1cccc(CCc2n[nH]c(=S)o2)c1 [Compound 4o, 5-(3-Methoxyphenethyl)-1,3,4-oxadiazole-2(3H)-thione]",43.6 ± 3.1,–,2.5,0.313,0.625,0.156,two-fold activities,–,–,15.1 ± 0.8,–,–,–,–,–,–,–,–,–
"Fc1cc(Cl)ccc1-c1n[nH]c(=S)o1 [Compound 4r, 5-(4-Chloro-2-fluorophenyl)-1,3,4-oxadiazole-2(3H)-thione]",10.8 ± 0.2,–,0.156,–,–,0.313,equipotent activity,–,–,–,equipotent activity,0.313,weak inhibitory activities,four-fold,equipotent; also recorded: considerably less active,–,–,39,–
"CCCOC(=O)c1cc(O)c(O)c(O)c1 [Propyl gallate, reference compound]",40.8 ± 1.2,–,–,–,–,–,–,–,–,–,–,–,–,–,–,–,–,–,–
"NC(N)=S [Thiourea, reference compound]",–,–,–,–,–,–,–,–,–,–,–,–,–,–,–,–,–,–,22.3 ± 1.2
